Experiment in all cases: relative viability (nuclei count vs DMSO), 5 days (fraction); higher = more cells survive
Compound in the test “Crenolanib + Lapatinib”: CC1(COc2ccc3c(c2)ncn3-c2ccc3cccc(N4CCC(N)CC4)c3n2)COC1 [Crenolanib] + CS(=O)(=O)CCNCc1ccc(-c2ccc3ncnc(Nc4ccc(OCc5cccc(F)c5)c(Cl)c4)c3c2)o1 [Lapatinib] (partner 2 µM)
In outline:
(§1)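 Dosing by pin tool came one day after lung cancer cell lines were seeded in 1536-well plates, using either one drug or a fixed anchor-drug dose plus five library-drug doses (not always all listed) in √10 steps. After 5 days, nuclei were counted on 4× images. Relative viability is treated-well nuclei count divided by vehicle-well nuclei count, and values are medians of duplicate plates.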

Compound in the test “Crenolanib + Linsitinib”: CC1(COc2ccc3c(c2)ncn3-c2ccc3cccc(N4CCC(N)CC4)c3n2)COC1 [Crenolanib] + C[C@]1(O)C[C@@H](c2nc(-c3ccc4ccc(-c5ccccc5)nc4c3)c3c(N)nccn32)C1 [Linsitinib] (partner 1 µM)
An outline of the steps:
as §1

Compound in the test “Tivantinib + Tozasertib”: O=C1NC(=O)[C@@H](c2cn3c4c(cccc24)CCC3)[C@@H]1c1c[nH]c2ccccc12 [Tivantinib] + Cc1cc(Nc2cc(N3CCN(C)CC3)nc(Sc3ccc(NC(=O)C4CC4)cc3)n2)n[nH]1 [Tozasertib] (partner 0.1 µM)
In outline: as §1

Compound in the test “Tivantinib + Decitabine”: O=C1NC(=O)[C@@H](c2cn3c4c(cccc24)CCC3)[C@@H]1c1c[nH]c2ccccc12 [Tivantinib] + Nc1ncn([C@H]2C[C@H](O)[C@@H](CO)O2)c(=O)n1 [Decitabine] (partner 2 µM)
In outline:
as §1

The source of these data is the supplement of paper PMC10307832.

Turning to UMC-11, the relative viability amounted to 0.955 with Crenolanib + Lapatinib (first compound 0.01 µM); 1.04 with Crenolanib + Lapatinib (first compound 0.03162 µM); 0.895 with Crenolanib + Lapatinib (first compound 0.1 µM); 0.985 in the test with Crenolanib + Lapatinib (first compound 0.3162 µM); 0.95 in the test with Crenolanib + Lapatinib (first compound 1 µM); 1.01 with Crenolanib + Linsitinib (first compound 0.01 µM). For the same cell line, the relative viability with Crenolanib + Linsitinib (first compound 0.03162 µM) was 0.997; with Crenolanib + Linsitinib (first compound 0.1 µM), 0.978; in the test with Crenolanib + Linsitinib (first compound 0.3162 µM), 1.14; with Crenolanib + Linsitinib (first compound 1 µM), 0.952; with Tivantinib + Tozasertib (first compound 0.01 µM), 0.202; in the test with Tivantinib + Tozasertib (first compound 0.1 µM) it was 0.178. The relative viability with Tivantinib + Tozasertib (first compound 0.3162 µM) was 0.188; with Tivantinib + Decitabine (first compound 0.01 µM), 0.574; with Tivantinib + Decitabine (first compound 0.03162 µM) it was 0.532; with Tivantinib + Decitabine (first compound 0.1 µM), 0.527; with Tivantinib + Decitabine (first compound 0.3162 µM) it was 0.434.
